Data: paper PMC6389896 (Communications Biology, 2019)
“And” between values parts separate entries of the source, which are not always exact repeats. Equal values may be shown once.

Experiments:
[1] = Oxytocin in CSF of the third ventricle after subcutaneous injection; assay type: in vivo, mouse; details: 90 min after sc 30 ng, 0 min = 100, individual animals, listed as OT
Procedure: In separate experiments we cannulated the third ventricles of WT and Ager^−/− mice and withdrew CSF for oxytocin measurements.
(§1) The CSF samples (5 μl) were thawed and diluted 1:20 in assay buffer. CSF samples were assayed without protein extraction due to the low protein concentration in the CSF. […] The inter-assay and intra-assay coefficients of variation were less than 15%.

[2] = Oxytocin in CSF from the cisterna magna after administration, EIA; assay type: in vivo, mouse; details: for CSF OT: individual animals, listed as OT
Procedure: (§2) CSF was collected according to the protocol for sampling CSF from mice without detectable plasma contamination[77],[78]. Under ketamine anaesthesia (100 mg/kg intraperitoneally), the occipital skull was exposed, and the dura mater of the cisterna magna appeared as a glistening and clear reverse triangle through which the medulla oblongata, a major blood vessel (arteria dorsalis spinalis), and CSF space were visible. A capillary tube was inserted into the cisterna magna through the dura mater, blood-free CSF samples were collected with a 32G needle and immediately frozen with dry ice prior to storage at −80 °C. After CSF collections, blood samples were obtained by cardiac puncture from the mice under continuous ketamine anaesthesia.
as §1

[3] = tested on: monkey brain capillary endothelial cells; assay: In vitro blood-brain barrier (BBB) model (MBT-24H), transport between luminal and abluminal chambers, control or RAGE shRNA knockdown; details: individual wells, listed as OT; for OT in lower (abluminal, brain) chamber: blood-to-brain, 3 h; for OT in luminal chamber: brain-to-blood, n = 3
Procedure: EC, monkey brain capillary endothelial cells; Peri, rat brain pericytes; Astro, rat astrocytes. […] The endothelial cells used in the upper chamber in a were treated with RAGE shRNA (knockdown, KD) or control (C or CNT) vectors to assess the effects of RAGE knockdown. […] Values are mean ± SEM
For the in vitro BBB model (MBT-24H, PharmaCo-Cell Co., Nagasaki, Japan), rat brain pericytes (1.5 × 10^4 cells/cm^2) and rat astrocytes (1.5 × 10^4 cells/cm^2) were seeded on the bottom of the collagen-coated polyester membranes of Transwell inserts (Corning Life Sciences, MA, USA). After 16 h the cells firmly adherent, monkey brain vascular endothelial cells (1.5 × 10^5 cells/cm^2) were then seeded on the upper side of the inserts in 24-well culture plates. The in vitro BBB models were established within 4 days of seeding the cells according to the manufacturer’s instructions. Trans-endothelial electrical resistance (TEER), which primarily reflects the flux of sodium ions through the cell layers in the culture conditions, was measured with an epithelial-volt-ohm metre and an Endohm-6 chamber electrodes (World Precision Instruments, Sarasota, FL, USA). The TEERs of the coated, cell-free filters were subtracted from the measured TEER values of the models and shown as Ω cm^2. The apparent permeability constants (Papp) between luminal and abluminal chambers were calculated from the distribution ratios. Endothelial expression was silenced using RAGE shRNA and the pSilencer 3.0-H1 vector (Ambion, Austin, TX, USA)[41]. […]

[4] = Plasma oxytocin after subcutaneous injection, EIA; assay type: in vivo, mouse; details: WT and Ager-/- male mice
Procedure: as §2, §1
Supplementary Figure 5. Transportation of peripherally administrated oxytocin (OT) or PBS into […]
Blood was recovered from the cardiac ventricles of the wild type (WT, RAGE+/+) and Ager-/- (RAGE-/-) male mice (n = 3–16). Oxytocin was measured in the extracted samples. […]
concentrations were measured with enzyme immunosorbent assay (EIA) or LC-MS/MS. […]

[5] = human or primate CSF, mammalian hippocampus and amygdala; cited from earlier work
[6] = Oxytocin in CSF after transient brain ischaemia (BCCAO) or sham operation; assay type: in vivo, mouse; details: individual animals, listed as OT
[7] = biological target: human esRAGE (Homo sapiens, UniProt Q15109); assay: Surface plasmon resonance (BIAcore) of oxytocin binding to immobilised esRAGE; details: SPR BIAcore 2000, immobilised recombinant human esRAGE (~5000 RU), 10 mM HEPES pH 7.4, 0.15 M NaCl, 25 °C; read-out: apparent dissociation constant (KD)
Sequence of human esRAGE (Q15109 23-347 isoform Q15109-3 limits assumed): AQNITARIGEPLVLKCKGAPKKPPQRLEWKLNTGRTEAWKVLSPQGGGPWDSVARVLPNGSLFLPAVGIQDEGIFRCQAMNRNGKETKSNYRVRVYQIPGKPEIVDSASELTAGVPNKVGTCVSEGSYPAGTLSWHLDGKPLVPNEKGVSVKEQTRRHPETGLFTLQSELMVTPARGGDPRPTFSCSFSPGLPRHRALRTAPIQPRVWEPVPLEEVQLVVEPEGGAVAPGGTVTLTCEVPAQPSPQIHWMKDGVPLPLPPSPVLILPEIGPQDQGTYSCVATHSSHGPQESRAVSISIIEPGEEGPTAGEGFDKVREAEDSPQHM
Procedure: Isolated human esRAGE was immobilised to BIAcore CM5 research grade sensor chips with the amine coupling kit to a density of ~5000 response units (RU)[27],[32],[41]. […] The sensor chips were regenerated with 10 mM NaOH and 0.5% SDS (W/V).

Structure (SMILES): CC[C@H](C)[C@@H]1NC(=O)[C@H](Cc2ccc(O)cc2)NC(=O)[C@@H](N)CSSC[C@@H](C(=O)N2CCC[C@H]2C(=O)N[C@@H](CC(C)C)C(=O)NCC(N)=O)NC(=O)[C@H](CC(N)=O)NC(=O)[C@H](CCC(N)=O)NC1=O [oxytocin, Oxytocin]
- OT % in CSF of the 3rd ventricle ([1]; Ager+/+ male mice): 295% and 138% and 171% and 41% and 195% and 116% and 100% and 188% and 206%
- OT % in CSF of the 3rd ventricle ([1]; Ager-/- male mice): 137% and 73% and 77% and 133% and 80% and 118% and 115% and 103%
- CSF OT ([2]; KO (Ager-/-) mice, 60 min after sc oxytocin): 1.096% and 1.022% and 1.298% and 0.875% and 0.8155% and 0.9128% and 1.16% and 0.679% and 1.176% and 1.081% and 0.9794% and 0.8625%
- CSF OT ([2]; KO+Tg mice, 60 min after sc oxytocin): 1.051% and 1.1275% and 0.9794% and 1.244% and 1.354% and 2.625%
- CSF OT ([2]; WT+Tg (endothelial human RAGE) mice, 60 min after sc oxytocin): 1.066% and 1.83% and 1.926% and 1.872%
- CSF OT ([2]; female Ager-/- mice, 60 min after sc OT): 110.13% and 105.01% and 103.76% and 85.23% and 99.81% and 68.15%
- CSF OT ([2]; female WT mice, 60 min after sc OT): 169.21% and 199.15% and 65.08% and 204.46% and 219.88% and 175.37% and 233.36% and 183.92% and 188.35%
- oxytocin concentrations in the CSF of Ager-/- mice after injection ([2]; sc 30 ng/mouse, Ager-/- mice): remained at baseline levels
- time of maxima of oxytocin in CSF from the cisterna magna ([2]; sc 30 ng/mouse, WT mice): 1 to 2 h
- time of return of CSF oxytocin to baseline ([2]; sc 30 ng/mouse, WT mice): 4 h
- OT in lower (abluminal, brain) chamber ([3]; 1 ng/ml added to luminal chamber, control vector (C)): 10 pg/mL and 13 pg/mL and 13.5 pg/mL and 11.5 pg/mL and 22.2 pg/mL
- OT in lower (abluminal, brain) chamber ([3]; 1 ng/ml luminal, RAGE shRNA knockdown (KD)): 5 pg/mL and 4.2 pg/mL and 2 pg/mL and 8 pg/mL
- OT in lower (abluminal, brain) chamber ([3]; 10 ng/ml luminal, RAGE KD): 8 pg/mL and 8.5 pg/mL and 9 pg/mL and 5 pg/mL
- OT in lower (abluminal, brain) chamber ([3]; 10 ng/ml luminal, control vector (C)): 21 pg/mL and 28 pg/mL and 15.5 pg/mL and 24 pg/mL and 27 pg/mL
- OT in luminal chamber ([3]; 1 ng/ml abluminal, RAGE KD): 0.32 pg/mL and 0.34 pg/mL and 0.36 pg/mL
- OT in luminal chamber ([3]; 1 ng/ml added to abluminal chamber, control (C)): 0.84 pg/mL and 1.12 pg/mL and 0.62 pg/mL
- OT in luminal chamber ([3]; 10 ng/ml abluminal, RAGE KD): 2 pg/mL and 1.68 pg/mL and 0.8 pg/mL
- OT in luminal chamber ([3]; 10 ng/ml abluminal, control (C)): 4 pg/mL and 5.2 pg/mL and 5.4 pg/mL
- apparent permeability constant (Papp) ([3]; head 1 ng/ml, RAGE KD, calculated from distribution ratios): 1.263 x10^-6 and 1.061 x10^-6 and 0.505 x10^-6 and 2.02 x10^-6
- apparent permeability constant (Papp) ([3]; head 1 ng/ml, control (C), calculated from distribution ratios across chambers): 2.525 x10^-6 and 3.283 x10^-6 and 3.409 x10^-6 and 2.904 x10^-6
- apparent permeability constant (Papp) ([3]; head 10 ng/ml, RAGE KD, calculated from distribution ratios): 0.076 x10^-6 and 0.098 x10^-6
- Tmax ([4]; plasma, sc 30 ng/mouse (approximately 1.1 μg/kg)): ≤ 10 min
- time of return of blood oxytocin to baseline ([4]; sc 30 ng/mouse): 1 to 2 h
- time of maximal oxytocin concentrations after peripheral administration [5]: 10 to 60 min
- CSF OT ([6]; Ager-/- BCCAO male mice): 121.746% and 129.498% and 127.909% and 71.8544% and 61.8033% and 79.0857% and 110.296% and 99.9236% and 126.34%
- CSF OT ([6]; Ager-/- Sham male mice): 71.8544% and 61.8033% and 67.0976% and 118.777% and 117.319% and 98.6976%
- CSF OT ([6]; WT BCCAO male mice): 191.756% and 287.616% and 179.547% and 244.561% and 258.145%
- CSF OT ([6]; WT Sham male mice, cisterna magna, after exogenous oxytocin): 155.233% and 188.051% and 122.984% and 133.451%
- Kd [7]: 179 nM
